Tests used:
[1] = PTIO radical scavenging assay
Procedure: The PTIO radical scavenging activity was assayed by referring to relevant methods. Briefly, PTIO radical solid (3 mg) was dissolved in 20 mL of methanol, and sample solution and PTIO methanol solution (40 µL:160 µL) were added to a 96-well microplate. The absorbance was determined at 585 nm using a microplate reader after 30 min of incubation and the scavenging rate was calculated on the basis of Equation (2). (2) PTIO radical scavenging activity (%) =[1−AS/AC]×100 where AS is the absorbance of the compounds to be tested and AC is the absorbance of the untreated control.

[2] = ABTS radical scavenging assay
Procedure: The ABTS radical scavenging assay was modified according to the method with slight modifications. Briefly, the ABTS radical cation was obtained by mixing ABTS diammonium salt stock solution (7.4 mM) with potassium persulfate (2.6 mM) in equal proportion and reacting it at 37 °C in darkness for 12–16 h. Before used, the absorbance of light green ABTS radical test solution at 745 nm was controlled to be 0.70 ± 0.02 by diluting with methanol. Sample solution and ABTS methanol solution (10 µL:190 µL) were added to 96-well microplate, and L-ascorbic acid was the positive control. After incubation at 37 °C for 10 min, the absorbance was tested at 745 nm using a microplate reader. Scavenging rate was calculated according to Equation (1). (1) ABTS radical scavenging activity (%) =AC–AS/AC×100 where AC and AS are the absorbance of the blank control and the compounds to be tested, respectively.

[3] = DPPH radical scavenging assay
Procedure: The scavenging ability on DPPH radical was conducted based on the method with some modifications. The sample solution and DPPH methanol solution (20 µL:180 µL) were added to a 96-well microplate. L-ascorbic acid was the positive control. The absorbance at 517 nm was measured using a microplate reader after the solution had stood for 30 min at 37 °C under dark conditions. The calculation formula of DPPH radical scavenging activity is consistent with the formula of ABTS radical scavenging activity.

[4] = molecular target: Acetylcholinesterase (AChE) (Electrophorus electricus, UniProt O42275); assay: Acetylcholinesterase inhibitory activity (ATCI/DTNB); type: biochemical; conditions: for inhibition at 1000 µg/mL: read-out: Acetylcholinesterase Inhibition (%)
Procedure: The experiment of acetylcholinesterase inhibition activity was slightly modified according to the literature [55]. Acetylcholinesterase (AChE) and acetylthiocholine iodide (ATCI) were dissolved in 0.1 M phosphate buffer (pH 8.0). 5,5′-Dithiobis-(2-nitrobenzoic acid) (DTNB) was prepared in 10 mL of 0.1 M phosphate buffer (pH 7.0) with a small amount of NaHCO3. A total of 120 µL of 0.1 M phosphate buffer (pH 8.0), 20 µL of 3 mM DTNB solution, 20 µL of sample solution and 20 µL of AChE (0.2 U/mL) were sequentially added to the 96-well microplate, and the mixture reacted for 10 min at 37 °C. The reaction was started by adding 20 µL of 3 mM ATCI and the mixture was incubated at 37 °C for 20 min. Donepezil was chosen as the positive control. […] (4) Acetylcholinesterase inhibition activity (%) =[1−(AS–Aj)/AC]×100 where As and Aj are the absorbance of the compound to be tested and tested compound blanks, respectively, and AC is the absorbance of the untreated control.

mushroom tyrosinase = assay: Mushroom tyrosinase inhibitory activity (L-tyrosine substrate); type: biochemical; conditions: for Tyrosinase Inhibition (%): at initial concentration of 1 mg/mL, means ± SEMs; for IC50: read-out: Tyrosinase inhibition IC50
Procedure: Mushroom tyrosinase (400 U/mL) and L-tyrosine (3 mM) were added separately in 0.05 M potassium phosphate buffer (pH 6.5). A total of 80 µL of potassium phosphate buffer (pH 6.5), 80 µL of L-tyrosine (3 mM) solution, 20 µL of sample solution and 20 µL of mushroom tyrosinase (400 U/mL) were added to a 96-well microplate. The mixture reacted for 1 h at 37 °C. […] The absorbance was measured at 490 nm using a microplate reader and Equation (3) was used to calculate the inhibition rate. (3) Tyrosinase inhibition activity (%) =AC–AS/AC×100
Equation (3) is the absorbance of the test compound and AC is the absorbance of the untreated control.

Sequence of Acetylcholinesterase (AChE) (O42275 24-633): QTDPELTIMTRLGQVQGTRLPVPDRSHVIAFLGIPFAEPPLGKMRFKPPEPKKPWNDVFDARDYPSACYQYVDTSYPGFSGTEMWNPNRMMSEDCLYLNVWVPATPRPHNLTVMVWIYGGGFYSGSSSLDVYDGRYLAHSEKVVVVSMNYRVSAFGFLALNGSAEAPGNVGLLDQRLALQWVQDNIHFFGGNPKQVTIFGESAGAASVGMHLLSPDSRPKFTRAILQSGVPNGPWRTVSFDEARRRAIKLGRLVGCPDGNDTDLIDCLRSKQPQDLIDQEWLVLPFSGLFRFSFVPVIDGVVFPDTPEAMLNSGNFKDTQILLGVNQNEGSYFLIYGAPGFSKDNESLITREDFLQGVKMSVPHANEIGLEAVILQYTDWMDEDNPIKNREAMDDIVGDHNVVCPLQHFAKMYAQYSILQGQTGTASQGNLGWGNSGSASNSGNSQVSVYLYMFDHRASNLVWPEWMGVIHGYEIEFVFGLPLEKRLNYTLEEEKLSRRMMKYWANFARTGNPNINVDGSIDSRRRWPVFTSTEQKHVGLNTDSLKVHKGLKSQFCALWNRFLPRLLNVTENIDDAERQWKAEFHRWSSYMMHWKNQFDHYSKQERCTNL

| Molecule | IC50 [1] [µM] | IC50 [2] [µM] | IC50 [3] [µM] | inhibition at 1000 µg/mL [4] [%] | Tyrosinase Inhibition (%) (mushroom tyrosinase) | IC50 (mushroom tyrosinase) [µM] | Acetylcholinesterase Inhibition (%) ([4]; at initial concentration of 1 mg/mL, means ± SEMs) | IC50 ([4]; read-out: Acetylcholinesterase inhibition IC50) [µM] |
| --- | --- | --- | --- | --- | --- | --- | --- | --- |
| COC(=O)[C@@H](O)[C@H](OC(=O)/C=C/c1ccc(O)cc1)C(=O)OC [Compound 1, (2′S, 3′S)-trans-4-coumaroyltartaric acid dimethyl ester] | > 100000 | > 500 | > 100000 | 38.43 ± 0.2 | 53.13 ± 0.65 | 2630 | – | – |
| COC(=O)[C@H](O)[C@@H](OC(=O)/C=C/c1ccc(O)cc1)C(=O)O [Compound 2, (2′R, 3′R)-trans-4-coumaroyl-4′-methoxyl-tartaric acid] | > 100000 | > 500 | > 100000 | 39.46 ± 0.25 | 53.54 ± 0.90 | 2590 | – | – |
| O=c1c(O)c(-c2cc(O)c(O)c(O)c2)oc2cc(O)cc(O)c12 [Compound 3, myricetin] | 2560 | 94 | 870 | 85.27 ± 0.06 | 60.00 ± 1.49 | 1390 | – | – |
| COc1cc(-c2oc3cc(O)cc(O)c3c(=O)c2O)ccc1O [Compound 4, isorhamnetin] | 44300 | > 500 | 6250 | 68.13 ± 0.24 | 44.17 ± 0.85 | 4690 | – | – |
| O=c1c(O)c(-c2ccc(O)c(O)c2)oc2cc(O)cc(O)c12 [Compound 5, quercetin] | 6360 | 97 | 590 | 83.65 ± 0.48 | 77.29 ± 1.52 | – | – | – |
| O=c1c(O)c(-c2ccc(O)cc2)oc2cc(O)cc(O)c12 [Compound 6, kaempferol] | 14700 | 108 | 590 | 82.21 ± 0.09 | 57.50 ± 0.82 | 1690 | – | – |
| C[C@@H]1O[C@@H](Oc2c(-c3ccc(O)cc3)oc3cc(O)cc(O)c3c2=O)[C@H](O)[C@H](O)[C@H]1O [Compound 7, afzelin] | > 100000 | > 500 | > 100000 | – | 32.71 ± 1.51 | 9240 | – | – |
| C[C@@H]1O[C@@H](Oc2c(-c3ccc(O)c(O)c3)oc3cc(O)cc(O)c3c2=O)[C@H](O)[C@H](O)[C@H]1O [Compound 8, quercitrin] | > 100000 | > 500 | 6560 | 40.11 ± 0.31 | 39.17 ± 0.86 | 4960 | – | – |
| C[C@@H]1O[C@@H](Oc2c(-c3cc(O)c(O)c(O)c3)oc3cc(Oc4cc(O)c5c(=O)c(O[C@@H]6O[C@@H](C)[C@H](O)[C@@H](O)[C@H]6O)c(-c6cc(O)c(O)c(O)c6)oc5c4)cc(O)c3c2=O)[C@H](O)[C@H](O)[C@H]1O [Compound 10, myricetin-3-O-rhamnoside-(C7-I-O-C7-II)-myricetin-3-O-rhamnoside] | 530 | 45 | 560 | 61.3 ± 0.38 | 66.04 ± 0.62 | 650 | – | – |
| CC[C@H](CC[C@@H](C)[C@H]1CC[C@H]2[C@@H]3CC=C4C[C@@H](O[C@@H]5O[C@H](CO)[C@@H](O)[C@H](O)[C@H]5O)CC[C@]4(C)[C@H]3CC[C@]12C)C(C)C [Compound 11] | > 100000 | > 500 | > 100000 | 40.8 ± 0.41 | 29.79 ± 0.88 | 8840 | – | – |
| CC(=O)CCc1ccc(O[C@@H]2O[C@H](CO)[C@@H](O)[C@H](O)[C@H]2O)cc1 [Compound 12, 4-(4′-Hydroxyphenyl)-2-butanone-4′-O-β-D-glucopyranoside] | > 100000 | > 500 | 34900 | 39.8 ± 0.53 | 35.63 ± 1.01 | 7470 | – | – |
| O=C(O)c1cc(O)c(O)c(O)c1 [Compound 13, gallic acid] | > 100000 | 179 | 770 | 71.74 ± 0.4 | 80.00 ± 0.78 | 590 | – | – |
| COC(=O)C[C@H]1CCC(=O)[C@H]1C/C=C\CCO[C@@H]1O[C@H](CO)[C@@H](O)[C@H](O)[C@H]1O [Compound 14, methyl-β-D-glucopyranosyl tuberonate] | > 100000 | > 500 | > 100000 | 47.18 ± 0.16 | 37.71 ± 0.56 | – | – | – |
| O=C1c2c(O[C@@H]3O[C@H](CO)[C@@H](O)[C@H](O)[C@H]3O)cc(O)cc2OC1(O)Cc1ccc(O)cc1 (stereo partly drawn) [Compound 15, hovetrichoside C] | > 100000 | > 500 | > 100000 | 39.91 ± 0.36 | 42.08 ± 0.54 | 4040 | – | – |
| O=C1O[C@H]([C@@H](O)CO)C(O)=C1O [L-ascorbic acid, reference compound] | 1610 | 156 | 440 | – | – | – | – | – |
| kaempferol-3-O-rutinoside [Compound 9] | 27600 | > 500 | > 100000 | – | 23.54 ± 1.04 | – | 39.90 ± 0.33 | > 1000 |
